Experimental data published in patent EP0102564A2, “Method for the removal of toxins bound to protein or lipid from blood or blood fractions, and use of certain compounds as liberating agents” (FRAUNHOFER-GESELLSCHAFT ZUR FÖRDERUNG DER ANGEWANDTEN …, priority 1982, dated 1984).
Read-outs that look alike come from different tables or passages of the source.

Columns and labels:
[1] = test system: Plasmaproteine; conditions: cited from earlier work
[2] = molecular target: T1, HSA (Homo sapiens, UniProt P02768); test: Binding study of toxins to protein, ultrafiltration and photometry, HSA; format: in vitro ADME; conditions: HSA 80 mg in 2 ml PBS, depends on initial concentration, read-out: MTX in ungebundener Form
T1 construct: Humanserumalbumin (HSA); purchased Behring, Marburg or Sigma, St. Louis (fatty-acid-free)
T1 sequence (P02768 25-609 limits assumed): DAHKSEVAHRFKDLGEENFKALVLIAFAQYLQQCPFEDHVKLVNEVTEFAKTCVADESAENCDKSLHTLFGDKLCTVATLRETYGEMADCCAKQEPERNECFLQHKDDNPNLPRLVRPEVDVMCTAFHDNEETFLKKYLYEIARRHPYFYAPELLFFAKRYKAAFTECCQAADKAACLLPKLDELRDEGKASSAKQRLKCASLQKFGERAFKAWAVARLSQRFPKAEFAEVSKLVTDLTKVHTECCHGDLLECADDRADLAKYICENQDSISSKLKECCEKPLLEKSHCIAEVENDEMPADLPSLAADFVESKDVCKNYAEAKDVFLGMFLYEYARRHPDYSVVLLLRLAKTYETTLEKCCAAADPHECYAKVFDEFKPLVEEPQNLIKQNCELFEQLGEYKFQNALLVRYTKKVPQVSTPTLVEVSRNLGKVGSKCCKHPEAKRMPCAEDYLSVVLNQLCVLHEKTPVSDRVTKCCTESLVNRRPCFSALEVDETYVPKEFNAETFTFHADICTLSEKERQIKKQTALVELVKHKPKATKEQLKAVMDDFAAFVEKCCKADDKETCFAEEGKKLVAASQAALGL
Description: Es wurden beide Verfahren der Druckerzeugung (Druckluft, Zentrifugation) erprobt. Dazu wurden die Proben (2 ml) in die Trennzelle gefüllt und ein Teil (150fu1) abgetrennt. Durch diesen kleinen Probenverlust wird das Gleichgewicht der Probe nur schwach gestört. Die Konzentrationen der einzelnen Substanzen (Toxin und Protein) wurden photometrisch mit einem Mehrkomponentenanalyseprogramm ermittelt. Beide Meßverfahren führten zu den gleichen Ergebnissen. Bevorzugt ist das Verfahren der Ultrafiltration mit Hilfe der Zentrifugation. Dieses Verfahren erlaubt einen höheren Probendurchsatz als das Verfahren mit Druckluft. Die verwendeten Proteinkonzentrationen waren physiologisch (Albumin 40 g/l; Fibrinogen 4 g/l). Aus den bekannten Anfangskonzentrationen und der gemessenen Konzentration an freiem ungebundenen Toxin lassen sich die Bindungsparameter sowie die Adsorptionsisothermen punktweise ermitteln.
Das freie ungebundene Toxin wurde durch Ultrafiltration gewonnen und die Konzentration photometrisch mit Hilfe der Mehrkomponentenanalyse bestimmt. Die Ausgangsproben enthielten 80 mg Protein und wurden mit PBS auf 2 ml aufgefüllt (physiologische Konzentration). Die Toxinmenge wurde zwischen 100 und 1GOO/ug variiert. Es zeigten sich deutliche Unterschiede zwischen BSA und HSA.

[3] = molecular target: T2, BSA (Bos taurus, UniProt P02769); test: Binding study of toxins to protein, ultrafiltration and photometry, BSA; conditions: bovine, bsa in pbs
T2 sequence (P02769 25-607): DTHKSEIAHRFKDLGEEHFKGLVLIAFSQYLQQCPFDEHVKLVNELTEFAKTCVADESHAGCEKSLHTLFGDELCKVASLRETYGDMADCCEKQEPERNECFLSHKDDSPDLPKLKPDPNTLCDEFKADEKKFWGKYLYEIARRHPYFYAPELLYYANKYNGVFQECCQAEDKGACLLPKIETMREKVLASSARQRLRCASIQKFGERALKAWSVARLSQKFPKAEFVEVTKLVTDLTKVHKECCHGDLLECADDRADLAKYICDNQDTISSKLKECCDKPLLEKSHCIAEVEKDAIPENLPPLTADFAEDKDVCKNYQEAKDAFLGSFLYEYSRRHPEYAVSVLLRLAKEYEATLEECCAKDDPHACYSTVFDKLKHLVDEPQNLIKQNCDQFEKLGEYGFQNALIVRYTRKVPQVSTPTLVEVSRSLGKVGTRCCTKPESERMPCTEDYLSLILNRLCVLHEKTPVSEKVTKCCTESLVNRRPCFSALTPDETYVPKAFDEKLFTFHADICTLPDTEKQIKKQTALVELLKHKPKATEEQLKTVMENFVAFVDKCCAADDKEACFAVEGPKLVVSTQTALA

[4] = molecular target: T2, BSA; test: Competitive adsorption of fatty acids and Ethanthiol on BSA; design: species or system Rind; conditions: rising oleic acid concentration
Text: Aus der Literatur ist bekannt, daß Fettsäuren eine starke Proteinbindung aufweisen. Proben, die Thiol und ölsäure (einfach ungesättigte Fettsäure) enthielten, zeigten abnehmende Thioladsorption bei steigender ölsäurekonzentration.

[5] = test system: Methotrexat, Proteinbindung; test: Uncoupling of toxin from protein binding, molar ratio K (Table III), toxin Methotrexat; conditions: molar ratio of uncoupler to toxin
Text: Werte können Tabelle III entnommen werden.

[6] = molecular target: T3, Ethanthiol-Protein-Komplex (BSA) (Bos taurus, UniProt P02769); test: Variation of the uncoupler amount, release of ET from BSA; design: species or system Rind; conditions: compared with reduced Glutathion
T3 construct: Rinderserumalbumin (BSA, bovine serum albumin); purchased Behring, Marburg
T3 sequence (P02769 25-607): as above
Description: Um die Wirksamkeit der beiden Entkoppler vergleichen zu können, wurden Proben mit 40 mg BSA auf 1 ml ET-Lösung (2170/umol ET/1 PBS) über Nacht bei 37 °C inkubiert. Nach dieser Zeit betrug die freie Thiolkonzentration ca. 2 bis 5% der Ausgangskonzentration. Nach der Zugabe unterschiedlicher Entkoppler-Mengen wurde die Freisetzung des ET gaschromatographisch verfolgt. Fig. 3 und 4 zeigen den Verlauf der ET-Konzentration als Funktion der Zeit. Die Zugabe des Entkopplers erfolgte zum Zeitpunkt t = o. Der Parameter K entspricht dem molaren Verhältnis zwischen eingesetzter Entkoppler-Menge und eingesetzter ET-Thiolmenge.

[7] = molecular target: T2, BSA; test: Adsorption of protein-bound ET on activated carbon without prior release, BSA; design: species or system Rind; conditions: K = 110, added after removal of carbon; BSA and HSA samples
Description: (§1) Um die Leistungsfähigkeit der ET-Entfernung nach vorhergehender Abkopplung von Protein beurteilen zu können, wurde die Adsorptionskinetik ohneverwendung eines Entkopplers untersucht. Dazu wurden im Batchversuch Proben, die 40 mg BSA oder HSA auf 1 ml ET-Lösung (2170/umol ET/ 1 PBS) enthielten, über Nacht auf einem Rollermixer inkubiert. Nach Einstellen des Gleichgewichts wurde am nächsten Tag die Konzentration an ET bestimmt. Sie lag für BSA bei ca. 11% und für HSA bei ca. 21% der Ausgangskonzentration. Zu beiden Proben wurden 30 mg SCII (vorher in PBS entgast) zugegeben und die freie ET-Konzentration fortlaufend gemessen. Nach 45 Minuten wurden die AK entfernt und Cystein zugegeben. […] Fig. 6 zeigt den Verlauf der ET-Konzentration. Die Probe, die HSA enthielt, wies eine Abnahme der ET-Menge durch Adsorption von 78% auf, die Probe mit BSA lediglich von ca. 68%. Dieses Ergebnis deckt sich mit der Beobachtung,daß ET stärker an BSA gebunden ist als an HSA. Damit konnte gezeigt werden, daß proteingebundenes ET durch Aktivkohle entfernt werden kann. Die Restkonzentration liegt jedoch relativ hoch, und die Kinetik ist langsam.

[8] = molecular target: T2, BSA; test: Adsorption of ET on activated carbon after prior release by uncoupler, BSA, batch; design: species or system Rind; conditions: for adsorbierte Menge nach 45 Minuten: uncoupler pre-adsorbed on SCII, then 30 mg AK
Description: In dieser Versuchsreihe wurde das Zusammenwirken aller bisher betrachteten Parameter im Batch erprobt. 1 ml ET-Lösung (2170/umol ET/1 PBS) wurden für ca. 18 Stunden bei 37°C mit 40 mg BSA inkubiert. Nach dieser Zeit beträgt die ET-Konzentration lediglich 5% des Ausgangswerts (d.h. 95% des ET sind an das BSA gebunden). Nun erfolgte die Zugabe von 150/ul Entkoppler (K-Cystein = 115, Fig. 7, Kurve a; K-Glutathion = 30, Fig. 8, Kurve a). Die Abkopplung des ET wird verfolgt, bis keine Zunahme der ET-Konzentration mehr eintritt. Bei der Verwendung von Cystein erfolgt die Freisetzung schneller als bei Glutathion.
Nun wurden 30 mg SCII (vorher in PBS entgast) zu den Proben hinzugegeben. Die ET-Konzentration nimmt nun rasch ab. Die gesamte Restmenge beträgt nach 45 Minuten nur noch ca. 5% des Anfangswerts. Es wurden also 95% der vorgegebenen Thiolmenge von 30 mg AK entfernt.
In einer weiteren Versuchsreihe wurde untersucht, ob der Entkoppler auch wirksam ist, wenn er zuvor an Aktivkohle adsorbiert wurde. Dazu wurden 30 mg SCII mit den Entkoppler-Lösungen 2 Stunden inkubiert. Diese vorbeladene Kohle wurde dann statt der Entkoppler-Lösung eingesetzt. Fig. 7 und 8 (jeweils Kurve b) zeigen den Abkopplungsvorgang. Die freie ET-Konzentration steigt in beiden Fällen nicht auf den Anfangswert an. Dem Freisetzungsprozeß ist eine Adsorption überlagert. Sie liegt bei AK-Glutathion um ca. 50% tiefer als bei AK-Cystein. Nach Zugabe von 30 mg AK (in PBS entgast) fällt die ET-Konzentration schnell ab. Nach 45 Minuten beträgt die adsorbierte Menge bei Verwendung von Cystein ca. 97%, bei Verwendung von Glutathion ca. 95%.

[9] = test system: Plasma; test: Removal of protein-bound ET from plasma; conditions: for Restkonzentration an ET nach Adsorption an AK mit vorheriger Freisetzung durch Entkoppler: 30 mg AK, 45 min, relative to initial value
[10] = test system: Ethanthiol, Proteinbindung; conditions: molar ratio of uncoupler to toxin; toxin Ethanthiol (Methanthiol)
[11] = molecular target: T1, HSA; test: Binding of Ethanthiol to HSA, gas chromatography (headspace); format: in vitro ADME; conditions: 40 mg HSA per 1 ml ET solution, overnight, equilibrium
Description: as §1

[12] = molecular target: T4, Fibrinogen (Bos taurus, UniProt P02672+P02676+P12799)
T4 sequence (P02672 20-615): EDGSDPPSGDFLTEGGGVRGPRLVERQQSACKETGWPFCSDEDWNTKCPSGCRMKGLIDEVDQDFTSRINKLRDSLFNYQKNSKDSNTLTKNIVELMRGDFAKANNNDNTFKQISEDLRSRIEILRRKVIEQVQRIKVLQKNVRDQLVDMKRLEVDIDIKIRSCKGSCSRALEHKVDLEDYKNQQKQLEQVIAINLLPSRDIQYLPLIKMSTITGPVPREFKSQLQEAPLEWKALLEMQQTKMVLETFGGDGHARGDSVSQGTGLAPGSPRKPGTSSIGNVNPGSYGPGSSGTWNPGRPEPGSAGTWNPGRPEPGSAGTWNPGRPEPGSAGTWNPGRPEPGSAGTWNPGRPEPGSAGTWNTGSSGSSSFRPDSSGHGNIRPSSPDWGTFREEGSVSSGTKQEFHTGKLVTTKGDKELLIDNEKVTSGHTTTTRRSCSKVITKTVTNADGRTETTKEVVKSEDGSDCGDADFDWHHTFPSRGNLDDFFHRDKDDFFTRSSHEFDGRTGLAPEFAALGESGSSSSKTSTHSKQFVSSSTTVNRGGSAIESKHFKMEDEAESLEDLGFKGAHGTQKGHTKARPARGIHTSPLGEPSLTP
T4 sequence (P02676 1-468): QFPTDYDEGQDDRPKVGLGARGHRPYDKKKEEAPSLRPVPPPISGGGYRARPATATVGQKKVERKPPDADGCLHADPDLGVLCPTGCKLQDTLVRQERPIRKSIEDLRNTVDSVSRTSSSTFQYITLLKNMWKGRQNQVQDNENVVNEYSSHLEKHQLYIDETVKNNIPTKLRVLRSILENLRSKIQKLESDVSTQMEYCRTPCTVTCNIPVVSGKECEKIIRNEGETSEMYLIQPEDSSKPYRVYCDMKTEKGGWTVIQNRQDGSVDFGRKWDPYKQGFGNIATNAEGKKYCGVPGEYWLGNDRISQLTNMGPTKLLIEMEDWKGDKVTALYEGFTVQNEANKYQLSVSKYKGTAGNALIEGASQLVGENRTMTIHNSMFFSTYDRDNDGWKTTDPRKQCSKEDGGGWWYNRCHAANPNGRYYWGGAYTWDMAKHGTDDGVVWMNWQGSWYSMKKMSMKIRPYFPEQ
T4 sequence (P12799 25-444): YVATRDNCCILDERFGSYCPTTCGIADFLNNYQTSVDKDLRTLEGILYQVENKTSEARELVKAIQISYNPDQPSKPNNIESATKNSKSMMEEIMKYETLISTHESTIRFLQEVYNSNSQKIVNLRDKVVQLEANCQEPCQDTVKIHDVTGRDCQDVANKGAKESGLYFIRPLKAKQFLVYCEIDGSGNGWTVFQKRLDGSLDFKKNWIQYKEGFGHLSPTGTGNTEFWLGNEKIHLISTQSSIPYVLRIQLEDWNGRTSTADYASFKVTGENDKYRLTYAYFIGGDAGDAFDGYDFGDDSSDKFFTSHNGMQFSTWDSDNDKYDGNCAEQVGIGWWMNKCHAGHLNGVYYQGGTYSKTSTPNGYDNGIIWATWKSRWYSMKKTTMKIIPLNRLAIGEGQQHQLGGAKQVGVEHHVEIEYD

[13] = molecular target: T2, BSA; test: in vitro; conditions: bovine
[14] = Removal of protein-bound ET from plasma
[15] = molecular target: T2, BSA; test: Binding of Ethanthiol to BSA, gas chromatography (headspace)

CC1=NS(=O)(=O)c2cc(Cl)ccc2N1 [Diazoxid]
Bindung von Pharmaka an Plasmaproteine ([1]; plasma): 90%

CN(Cc1cnc2nc(N)nc(N)c2n1)c1ccc(C(=O)N[C@@H](CCC(=O)O)C(=O)O)cc1 [Methotrexat]
fraction unbound [2]: 0.3 to 0.4
Bindung von Pharmaka an Plasmaproteine ([1]; plasma): 80%
fraction unbound [3]: 0.1 to 0.25

CCCCCCCC/C=C\CCCCCCCC(=O)O [ölsäure]
Bindung von Ethanthiol an BSA durch Zugabe von ölsäure [4]: behindert oder gar blockiert

O=C1OC(c2ccc(O)c(S(=O)(=O)O)c2)(c2ccc(O)c(S(=O)(=O)O)c2)c2c(Br)c(Br)c(Br)c(Br)c21 [Sulfobromphthalein]
K-Werte [5]: ca. 5

N[C@@H](CS)C(=O)O [Cystein]
K-Werte für den gleichen Freisetzungsgrad an ET [6]: höher
Freisetzung des noch vorhandenen Ethanthiols [7]: totale Freisetzung
Freisetzung, Geschwindigkeit im Vergleich zu Glutathion ([8]; K-Cystein = 115, K-Glutathion = 30): schneller
adsorbierte Menge nach 45 Minuten [8]: ca. 97%
Freisetzung, Geschwindigkeit im Vergleich zu Glutathion [9]: schnellere Freisetzung
Restkonzentration an ET nach Adsorption an AK mit vorheriger Freisetzung durch Entkoppler ([9]; uncoupler added directly): 15%
Restkonzentration an ET nach Adsorption an AK mit vorheriger Freisetzung durch Entkoppler ([9]; uncoupler pre-adsorbed on AK): 4%

CCN(CC)CCCC(C)Nc1ccnc2cc(Cl)ccc12 (racemic) [Chloroquin]
Bindung von Pharmaka an Plasmaproteine ([1]; plasma): 55%

Nc1nc2ncc(CNc3ccc(C(=O)N[C@@H](CCC(=O)O)C(=O)O)cc3)nc2c(=O)[nH]1 [Folsäure]
K-Werte [5]: ca. 5

O=c1ccc2ccccc2o1 [Coumarin]
Bindung von Pharmaka an Plasmaproteine ([1]; plasma): 99%

NNC(=O)c1ccncc1 [Isoniazid]
Bindung von Pharmaka an Plasmaproteine [1]: 100%

Phenylbutazon
K-Werte [5]: ca. 2
Bindung von Pharmaka an Plasmaproteine ([1]; plasma): 98%

O=C(O)c1ccccc1O [Salicylsäure]
K-Werte [5]: ca. 5
Bindung von Pharmaka an Plasmaproteine ([1]; plasma): 80%

N[C@@H](CCC(=O)N[C@@H](CS)C(=O)NCC(=O)O)C(=O)O [Glutathion, red., Glutathion, reduziert]
adsorbierte Menge nach 45 Minuten [8]: ca. 95%
K-Werte [10]: ca. 100
Entkopplung ([9]; ET rises again after final addition of Cystein): keine 100%ige Entkopplung
Restkonzentration an ET nach Adsorption an AK mit vorheriger Freisetzung durch Entkoppler ([9]; uncoupler added directly): 15%
Restkonzentration an ET nach Adsorption an AK mit vorheriger Freisetzung durch Entkoppler ([9]; uncoupler pre-adsorbed on AK): 16%

CN(C)CCCN1c2ccccc2Sc2ccc(Cl)cc21 [Chlorpromazin]
Bindung von Pharmaka an Plasmaproteine ([1]; plasma): 90%

Nc1nc2c(c(=O)[nH]1)N(C=O)C(CNc1ccc(C(=O)N[C@@H](CCC(=O)O)C(=O)O)cc1)CN2 (some centres unmarked) [Leucoverin]
K-Werte [5]: ca. 5

CN(C)CCCN1c2ccccc2CCc2ccccc21 [Imipramin]
Bindung von Pharmaka an Plasmaproteine ([1]; plasma): 90%

CCS [Ethanthiol]
Konzentration an ET, % der Ausgangskonzentration [11]: ca. 21%
von Fibrinogen gebundene molare Menge von Toxin im Vergleich zu Albumin [12]: annähernd die gleiche molare Menge
fraction unbound at 18 h, 2170 µM ([13]; ET-Konzentration, % des Ausgangswerts): 0.05
fraction unbound ([13]; Ethanthiol an BSA gebunden): ~0.05
fraction unbound ([13]; Konzentration an ET, % der Ausgangskonzentration): ~0.11
fraction unbound ([13]; freie Thiolkonzentration, % der Ausgangskonzentration): 0.02 to 0.05
fraction unbound at 20 h, 2170 µM [14]: 0.33
Adsorption des Ethanthiols an BSA bis zur Nachweisgrenze dauert [15]: ≤ 6 Stunden
Zeit, nach der 50% der ET-Menge gebunden sind ([15]; 40 mg BSA, 1 ml ET solution 2170 µmol/l, 37°C): ca. 3 Stunden
